Measured values: patent US20150196033A1, “PESTICIDAL COMPOSITIONS AND PROCESSES RELATED THERETO” (priority 2012, published 2015)
Like-named read-outs stand apart in the source and are kept apart here.

Tests used:
[1] = tested on: Beet Armyworm (BAW) (Spodoptera exigua); assay: Bioassay on Beet Armyworm (BAW), 128-well diet tray assay; type: in vivo; settings: Spodoptera exigua, 168 h, read-out: Rating BAW (% Control (or Mortality))
Protocol: (§1) Certain molecules disclosed in this document were tested against BAW and CEW using procedures described in the following examples. In the reporting of the results, the “BAW & CEW Rating Table” was used (See Table Section).
Bioassays on BAW (Spodoptera exigua)
(§2) Trays were covered with a clear self-adhesive cover and held at 25° C., 14:10 light-dark for five to seven days. Percent mortality was recorded for the larvae in each well; activity in the eight wells was then averaged. The results are indicated in the table entitled “Table ABC: Biological Results” (See Table Section).

[2] = tested on: Corn Earworm (CEW) (Helicoverpa zea); assay: Bioassay on Corn Earworm (CEW), 128-well diet tray assay; type: in vivo; settings: Helicoverpa zea, 168 h; for mortality at 50 µg/cm2: read-out: Rating CEW (% Control (or Mortality)); for mortality at 0.5 µg/cm2: 0.5 μg/cm2 on artificial diet, read-out: Rating CEW (% Control (or Mortality)), *Tested at 0.5 μg/cm2
Protocol: as §1
Bioassays on CEW (Helicoverpa zea)
as §2

[3] = 50 μg/cm2 on artificial diet, second instar larvae, five to seven days
[4] = second instar larvae, five to seven days

Structure (SMILES)	mortality at 50 µg/cm2 [1, 3] [%]	mortality at 50 µg/cm2 [2, 3] [%]	also measured
CC(C)C(=O)OCS/C(=N\C(=O)Nc1ccc(-c2ncn(-c3ccc(OC(F)(F)F)cc3)n2)cc1)Nc1ccccc1C(C)C [Molecule A5, (Z)-((N-(2-Isopropylphenyl)-N′-((4-(1-(4-(trifluoromethoxy)phenyl)-1H-1,2,4-triazol-3-yl)phenyl)carbamoyl)carbamimidoyl)thio)methyl isobutyrate]	50 to 100	50 to 100	–
Cc1cccc(C)c1N/C(=N/C(=O)Nc1ccc(-c2ncn(-c3ccc(C(F)(F)F)cc3)n2)cc1)SCOC(=O)CNC(=O)OCc1ccccc1 [Molecule A8, (Z)-((N-(2,6-Dimethylphenyl)-N′-((4-(1-(4-(trifluoromethyl)phenyl)-1H-1,2,4-triazol-3-yl)phenyl)carbamoyl)carbamimidoyl)thio)methyl 2-(((benzyloxy)carbonyl)amino)acetate]	–	–	mortality at 50 µg/cm2 [1]: 50 to 100%; mortality at 50 µg/cm2 [2]: 50 to 100%
COc1ccc(N/C(=N/C(=O)Nc2ccc(-c3ncn(-c4ccc(OC(F)(F)F)cc4)n3)cc2)SCS[C@@H]2O[C@@H](C)[C@H](OC)[C@@H](OC)[C@H]2OC)c(C)c1 [Molecule A10, (Z)-(((2S,3R,4R,5S,6S)-3,4,5-Trimethoxy-6-methyltetrahydro-2H-pyran-2-yl)thio)methyl N-(4-methoxy-2-methylphenyl)-N′-((4-(1-(4-(trifluoromethoxy)phenyl)-1H-1,2,4-triazol-3-yl)phenyl)carbamoyl) carbamimidothioate]	50 to 100	50 to 100	–
CC(C)c1ccccc1NC(=O)NC(=O)Nc1ccc(-c2ncn(-c3ccc(OC(F)(F)F)cc3)n2)cc1 [Molecule A13, 1-(2-isopropylphenyl)-3-[[4-[1-[4-(trifluoromethoxy)phenyl]-1,2,4-triazol-3-yl]phenyl]carbamoyl]urea]	50 to 100	50 to 100	–
CC(C)c1ccccc1N1C(=O)CS/C1=N\C(=O)Nc1ccc(-c2ncn(-c3ccc(OC(F)(F)F)cc3)n2)cc1 [Molecule A19, (Z)-1-(3-(2-isopropylphenyl)-4-oxothiazolidin-2-ylidene)-3-(4-(1-(4-(trifluoromethoxy)phenyl)-1H-1,2,4-triazol-3-yl)phenyl)urea]	50 to 100	50 to 100	–
CC(C)c1ccccc1N/C(S)=C/C(=O)Nc1ccc(-c2ncn(-c3ccc(OC(F)(F)F)cc3)n2)cc1 [Molecule A21, 3-((2-isopropylphenyl)amino)-3-thioxo-N-(4-(1-(4-(trifluoromethoxy)phenyl)-1H-1,2,4-triazol-3-yl)phenyl)propanamide]	50 to 100	50 to 100	–
Cc1cccc(C)c1N/C(S)=C/C(=O)Nc1ccc(-c2ncn(-c3ccc(OC(F)(F)F)cc3)n2)cc1 [Molecule A23, 3-((2,6-dimethylphenyl)amino)-3-thioxo-N-(4-(1-(4-(trifluoromethoxy)phenyl)-1H-1,2,4-triazol-3-yl)phenyl)propanamide]	50 to 100	50 to 100	–
CC(C)c1ccccc1N1C(=O)CS/C1=C\C(=O)Nc1ccc(-c2ncn(-c3ccc(OC(F)(F)F)cc3)n2)cc1 [Molecule A24, (Z)-2-(3-(2-isopropylphenyl)-4-oxothiazolidin-2-ylidene)-N-(4-(1-(4-(trifluoromethoxy)phenyl)-1H-1,2,4-triazol-3-yl)phenyl)acetamide]	50 to 100	50 to 100	–
CC(C)c1ccccc1N/C(S)=C(\C#N)C(=O)Nc1ccc(-c2ncn(-c3ccc(OC(F)(F)F)cc3)n2)cc1 [Molecule A25, (Z)-2-cyano-3-((2-isopropylphenyl)amino)-3-mercapto-N-(4-(1-(4-(trifluoromethoxy)phenyl)-1H-1,2,4-triazol-3-yl)phenyl)acrylamide]	0	0 to 50	–
COc1ccc(N/C(S)=C(\C#N)C(=O)Nc2ccc(-c3ncn(-c4ccc(OC(F)(F)F)cc4)n3)cc2)c(C)c1 [Molecule A26, (Z)-2-Cyano-3-mercapto-3-((4-methoxy-2-methylphenyl)amino)-N-(4-(1-(4-(trifluoromethoxy)phenyl)-1H-1,2,4-triazol-3-yl)phenyl)acrylamide]	0	0	–
N#C/C(C(=O)Nc1ccc(-c2ncn(-c3ccc(OC(F)(F)F)cc3)n2)cc1)=C(/S)Nc1ccccc1-c1ccccc1 [Molecule A27, (Z)-3-([1,1′-Biphenyl]-2-ylamino)-2-cyano-3-mercapto-N-(4-(1-(4-(trifluoromethoxy)phenyl)-1H-1,2,4-triazol-3-yl)phenyl)acrylamide]	0	0 to 50	–
Cc1ccccc1N/C(S)=C(\C#N)C(=O)Nc1ccc(-c2ncn(-c3ccc(OC(F)(F)F)cc3)n2)cc1 [Molecule A29, (Z)-2-Cyano-3-mercapto-3-(o-tolylamino)-N-(4-(1-(4-(trifluoromethoxy)phenyl)-1H-1,2,4-triazol-3-yl)phenyl)acrylamide]	0 to 50	50 to 100	–
N#C/C(C(=O)Nc1ccc(-c2ncn(-c3ccc(OC(F)(F)F)cc3)n2)cc1)=C(/S)Nc1c(F)cccc1F [Molecule A30, (Z)-2-Cyano-3-((2,6-difluorophenyl)amino)-3-mercapto-N-(4-(1-(4-(trifluoromethoxy)phenyl)-1H-1,2,4-triazol-3-yl)phenyl)acrylamide]	0	0	–
CC(C)c1ccccc1N1C(=O)CS/C1=C(/C#N)C(=O)Nc1ccc(-c2ncn(-c3ccc(OC(F)(F)F)cc3)n2)cc1 [Molecule A31, (Z)-2-Cyano-2-(3-(2-isopropylphenyl)-4-oxothiazolidin-2-ylidene)-N-(4-(1-(4-(trifluoromethoxy)phenyl)-1H-1,2,4-triazol-3-yl)phenyl)acetamide]	50 to 100	50 to 100	–
Cc1cc(C)c(N2C(=O)CS/C2=N\C(=O)Nc2ccc(-c3ncn(-c4ccc(OC(F)(F)F)cc4)n3)cc2)c(C)c1 [Molecule A36]	50 to 100	50 to 100	–
O=C(/N=C1\SCC(=O)N1c1ccccc1C1CC1)Nc1ccc(-c2ncn(-c3ccc(OC(F)(F)F)cc3)n2)cc1 [Molecule A66]	50 to 100	–	–
Cc1cccc(N/C(S)=N/C(=O)Nc2ccc(-c3ncn(-c4ccc(OC(F)(F)F)cc4)n3)cc2)c1C [Molecule A71]	50 to 100	–	–
O=C(/N=C(\S)Nc1ccc(Cl)cc1Cl)Nc1ccc(-c2ncn(-c3ccc(OC(F)(F)F)cc3)n2)cc1 [Molecule A78]	0	–	–
Cc1ccc(C(C)C)c(N/C(S)=N/C(=O)Nc2ccc(-c3ncn(-c4ccc(OC(F)(F)F)cc4)n3)cc2)c1 [Molecule A83]	50 to 100	–	–
CC(C)(C)c1ccccc1N1C(=O)CS/C1=N\C(=O)Nc1ccc(-c2ncn(-c3ccc(OC(F)(F)F)cc3)n2)cc1 [Molecule A95]	–	–	mortality at 0.5 µg/cm2 [2, 4]: 50 to 100%
COc1ccc(Cl)cc1N/C(S)=N/C(=O)Nc1ccc(-c2ncn(-c3ccc(OC(F)(F)F)cc3)n2)cc1 [Molecule A99]	0	–	–
CC(C)c1ccccc1N1C(=O)CS/C1=N\C(=O)Nc1ccc(-c2nnc(-c3ccc(OC(F)(F)C(F)(F)F)cc3)o2)cc1 [Molecule A102, (Z)-1-(3-(2-isopropylphenyl)-4-oxothiazolidin-2-ylidene)-3-(4-(5-(4-(perfluoroethoxy)phenyl)-1,3,4-oxadiazol-2-yl)phenyl)urea]	–	–	mortality at 0.5 µg/cm2 [2, 4]: 50 to 100%
CC(C)c1ccccc1N/C(S)=N/C(=O)Nc1ccc(-c2ncn(-c3ccc(OC(F)(F)C(F)(F)F)cc3)n2)cc1 [Molecule A112]	50 to 100	–	–
